Read-outs that look alike come from different tables or passages of the source.
Tested on: 6C3HED lymphosarcoma
Assay: animal or person
Format: in vivo
Conditions: for inhibition in vivo at 18.75 mg/kg: read-out: % inhibition of tumor growth, oral, 18.75 mg/kg, BIDX 8; for inhibition in vivo at 37.5 mg/kg: read-out: % inhibition of tumor growth, oral, 37.5 mg/kg, BIDX 8; for inhibition in vivo at 75 mg/kg: read-out: % inhibition of tumor growth, oral, 75 mg/kg, BIDX 8
Procedure: The compounds were tested in C3H mice bearing a 6C3HED lymphosarcoma, also known as the Gardner lymphosarcoma (GLS), and in a variety of human tumor xenografts in CD1 nu/nu mice, including CX-1, LX-1, HXGC3, and VRC5. The 6C3HED lymphosarcoma was obtained from the Division of Cancer Treatment, National […] Institute, Tumor Bank, maintained at E. G. and G. Mason Research (Worcester, Mass.). The CX-1 human colon carcinoma and the LX-1 human lung carcinoma xenografts were obtained from the National Cancer Institute. The HXGC3 and VRC5 human colon xenografts were obtained from Dr. P. J. Houghton, St. Jude Children's Hospital in Memphis (see Br. J. Cancer, 37, 213 (1978)). First passage tumor was stored in liquid nitrogen using standard techniques. The transplanted tumor was reestablished from the Tumor Bank every six months or as needed. The tumor was maintained by serial passage twice weekly in C3H mice.
In the procedure the tumor was removed from passage animals and minced into 1- to 3-mm square fragments using sterile techniques. Tumor pieces were checked for sterility using both Antibiotic Medium 1 and Brain Heart Infusion (Difco, Detroit, Mich.). Recipient mice were shaved and tumor pieces were implanted subcutaneously in the auxiliary region by trocar. Drug therapy on the appropriate schedule was initiated on the day after tumor implant for 6C3HED and after a seven (7) day delay for xenografts (or other delay as noted in Table 2). The compound being tested was mixed with 2.5% Emulphor EL620 from GAF Corporation (1:40 dilution in saline). Food and water were provided ad libitium. The drug was administered orally in 0.5 ml of 2.5% Emulphor (unless otherwise indicated). The tumor was measured the day after treatment ended with two dimensional measurements (width and length) of the tumor taken using automated digital calipers interfaced to a microcomputer. Approximate weight for the tumor was calculated using the following formula [Worzalla, J. F., et al., Invest. New Drugs, 8, 241 (1990], (tumor weight in mg)=(width in mm)^2 ×(length in mm)/2.
At least one control group of an equal number of mice was treated with the same volume of 2.5% Emulphor only. The percent inhibition was determined by subtracting the ratio of the mean tumor size of the test group relative to the control group from one and multiplying the result times 100.
The results of several experiments in mice bearing a 6C3HED lymphosarcoma (or other tumor where indicated) when the indicated compounds were administered are provided in Table 2. In Table 2, column 1 gives the Example number of the compound used, column 2 lists the dose level in mg/kg, column 3 provides the percent inhibition of tumor growth, column 4 gives the number of mice which died relative to the total number of animals in the group, column 5 gives the method of administration of the compound, and column 6 gives the dosage schedule. The protocol used with other tumors was the same as with the 6C3HED lymphosarcoma.

[1] = Mus musculus, 6C3HED, ip, read-out: % inhibition of tumor growth, IP, 150 mg/kg, DX 8
[2] = Mus musculus, 6C3HED, ip, read-out: % inhibition of tumor growth, IP, 300 mg/kg, DX 8
[3] = Mus musculus, 6C3HED, po, read-out: % inhibition of tumor growth, oral, 150 mg/kg, BIDX 8
[4] = Mus musculus, 6C3HED, po, read-out: % inhibition of tumor growth, oral, 300 mg/kg, BIDX 8
[5] = Mus musculus, 6C3HED, po, read-out: % inhibition of tumor growth, oral, 150 mg/kg, DX 8
[6] = Mus musculus, 6C3HED, po, read-out: % inhibition of tumor growth, oral, 300 mg/kg, DX 8

| Structure (SMILES) | Tox/Tot (mice which died / total) (IP, 300 mg/kg, DX 8) | inhibition in vivo at 150 mg/kg [3] | inhibition in vivo at 300 mg/kg [4] | Tox/Tot (mice which died / total) (oral, 150 mg/kg, BIDX 8) | Tox/Tot (mice which died / total) (oral, 300 mg/kg, BIDX 8) | inhibition in vivo at 150 mg/kg [5] | inhibition in vivo at 300 mg/kg [6] | Tox/Tot (mice which died / total) (oral, 150 mg/kg, DX 8) | Tox/Tot (mice which died / total) (oral, 300 mg/kg, DX 8) | also measured |
| --- | --- | --- | --- | --- | --- | --- | --- | --- | --- | --- |
| CCN=S(=O)(NC(=O)Nc1ccc(Cl)cc1)c1ccc(C)cc1 (centres unmarked) [Example 4, N-[[(4-chlorophenyl)amino]carbonyl]-N'-ethyl-4-methylbenzenesulfonimidamide] | 0/10 | 87% | 96% | 0/10 | 0/10 |  |  |  |  | Tox/Tot (mice which died / total) (IP, 150 mg/kg, DX 8): 0/10; inhibition in vivo at 150 mg/kg [1]: 10%; inhibition in vivo at 300 mg/kg [2]: 18% |
| CCCNS(=O)(=NC(=O)Nc1ccc(Cl)cc1)c1ccc(C)cc1 (centres unmarked) [Example 5] | 0/10 |  |  |  |  | 64% | 69% | 0/10 | 0/10 | Tox/Tot (mice which died / total) (IP, 150 mg/kg, DX 8): 0/10; inhibition in vivo at 150 mg/kg [1]: 34%; inhibition in vivo at 300 mg/kg [2]: 44% |
| Cc1ccc(S(=O)(=NC(C)C)NC(=O)Nc2ccc(Cl)cc2)cc1 (centres unmarked) [Example 6, N-[[(4-chlorophenyl)amino]carbonyl]-N'-(1-methylethyl)-4-methylbenzenesulfonimidamide] |  | 93% | 99% |  | 2/10 |  |  |  |  | inhibition in vivo at 18.75 mg/kg (Mus musculus, 6C3HED, po): 18%; inhibition in vivo at 37.5 mg/kg (Mus musculus, 6C3HED, po): 60%; inhibition in vivo at 75 mg/kg (Mus musculus, 6C3HED, po): 86%; Tox/Tot (mice which died / total) (oral, 18.75 mg/kg, BIDX 8): 0/10; Tox/Tot (mice which died / total) (oral, 37.5 mg/kg, BIDX 8): 0/10; Tox/Tot (mice which died / total) (oral, 75 mg/kg, BIDX 8): 0/10; % inhibition of tumor growth (oral, 150 mg/kg, BIDX 8): 99% |
| Cc1ccc(S(=O)(=NC(=O)Nc2ccc(Cl)cc2)NCC(C)C)cc1 (centres unmarked) [Example 8] |  | 97% |  |  | 10/10 |  |  |  |  | inhibition in vivo at 18.75 mg/kg (Mus musculus, 6C3HED, po): 29%; inhibition in vivo at 25 mg/kg (Mus musculus, 6C3HED, po, read-out: % inhibition of tumor growth, oral, 25 mg/kg, DX 8): 28%; inhibition in vivo at 37.5 mg/kg (Mus musculus, 6C3HED, po): 60%; inhibition in vivo at 50 mg/kg (Mus musculus, 6C3HED, po, read-out: % inhibition of tumor growth, oral, 50 mg/kg, DX 8): 31%; inhibition in vivo at 75 mg/kg (Mus musculus, 6C3HED, po): 85%; inhibition in vivo at 100 mg/kg (Mus musculus, 6C3HED, po, read-out: % inhibition of tumor growth, oral, 100 mg/kg, DX 8): 51%; Tox/Tot (mice which died / total) (oral, 18.75 mg/kg, BIDX 8): 0/10; Tox/Tot (mice which died / total) (oral, 25 mg/kg, DX 8): 0/10; Tox/Tot (mice which died / total) (oral, 37.5 mg/kg, BIDX 8): 0/10; Tox/Tot (mice which died / total) (oral, 50 mg/kg, DX 8): 0/10; Tox/Tot (mice which died / total) (oral, 75 mg/kg, BIDX 8): 0/10; Tox/Tot (mice which died / total) (oral, 100 mg/kg, DX 8): 0/10; % inhibition of tumor growth (oral, 150 mg/kg, BIDX 8): 98%; % inhibition of tumor growth (oral, 300 mg/kg, BIDX 8): TOX |
| CCCCCCNS(=O)(=NC(=O)Nc1ccc(Cl)cc1)c1ccc(C)cc1 (centres unmarked) [Example 9] |  | 65% | 79% | 0/10 | 2/10 |  |  |  |  |  |
| Cc1ccc(S(=O)(=NC(=O)Nc2ccc(Cl)cc2)NCCO)cc1 (centres unmarked) [Example 10] |  |  |  |  |  | 40% | 60% | 0/10 | 0/10 |  |
| Cc1ccc(S(=O)(=NC(=O)Nc2ccc(Cl)cc2)NCCCO)cc1 (centres unmarked) [Example 11] |  | 65% | 89% | 0/10 | 2/10 |  |  |  |  |  |
| Cc1ccc(S(=O)(=NC(=O)Nc2ccc(Cl)cc2)NCc2ccccc2)cc1 (centres unmarked) [Example 12] |  | 73% | 87% | 0/9 | 1/10 |  |  |  |  |  |
| Cc1ccc(S(=O)(=NC(=O)Nc2ccc(Cl)cc2)NCCc2ccccc2)cc1 (centres unmarked) [Example 13] |  | 39% | 48% | 0/10 | 0/10 |  |  |  |  |  |
| Cc1ccc(S(=O)(=NC(=O)Nc2ccc(Cl)cc2)Nc2ccccc2)cc1 (centres unmarked) [Example 14] | 3/10 |  |  |  |  | 0% | 5% | 0/10 | 0/10 | Tox/Tot (mice which died / total) (IP, 150 mg/kg, DX 8): 2/10; inhibition in vivo at 150 mg/kg [1]: 1%; inhibition in vivo at 300 mg/kg [2]: 38% |
| CC(=O)NS(=O)(=NC(=O)Nc1ccc(Cl)cc1)c1ccc(C)cc1 (centres unmarked) [Example 15] | 10/10 | 0% | 84% | 0/10 | 0/10 | 23% | 44% | 0/10 | 0/10 | Tox/Tot (mice which died / total) (IP, 150 mg/kg, DX 8): 0/10; % inhibition of tumor growth (IP, 300 mg/kg, DX 8): TOX; inhibition in vivo at 150 mg/kg [1]: 0% |
| CC(=O)N(C)S(=O)(=NC(=O)Nc1ccc(Cl)cc1)c1ccc(C)cc1 (centres unmarked) [Example 16, N-[[(4-chlorophenyl)amino]carbonyl]-N'-acetyl-N'-methyl-4-methylbenzenesulfonimidamide] |  | 98% | 99% | 1/10 | 1/10 |  |  |  |  |  |
| CC(=O)N(C(=O)N=[S+]([O-])(c1ccc(C)cc1)N(C)C(C)=O)c1ccc(Cl)cc1 (centres unmarked) [Example 17] |  | 83% | 96% | 0/10 | 0/10 |  |  |  |  |  |
| Cc1ccc(S(=O)(=NC(=O)Nc2ccc(Cl)cc2)N(C)C)cc1 (centres unmarked) [Example 18] | 4/8 |  |  |  |  | 45% | 63% | 0/10 | 0/10 | Tox/Tot (mice which died / total) (IP, 600 mg/kg, DX 8): 6/8; inhibition in vivo at 300 mg/kg [2]: 93%; inhibition in vivo at 600 mg/kg (Mus musculus, 6C3HED, ip, read-out: % inhibition of tumor growth, IP, 600 mg/kg, DX 8): 99% |
| Cc1ccc(S(N)(=O)=NC(=O)N(C)c2ccc(Cl)cc2)cc1 (centres unmarked) [Example 20] |  | 83% | 93% | 0/10 | 0/10 |  |  |  |  |  |
| Cc1ccc(S(=N)(=O)NC(=O)Nc2ccc(Br)cc2)cc1 (centres unmarked) [Example 22, N-[[(4-bromophenyl)amino]carbonyl]-4-methylbenzenesulfonimidamide] |  | 100% | 100% | 0/10 | 3/10 |  |  |  |  |  |
| Cc1ccc(NC(=O)N=S(N)(=O)c2ccc(C)cc2)cc1 (centres unmarked) [Example 24] | 0/10 |  |  |  |  | 10% | 40% | 0/10 | 0/10 | Tox/Tot (mice which died / total) (IP, 150 mg/kg, DX 8): 0/10; inhibition in vivo at 150 mg/kg [1]: 31%; inhibition in vivo at 300 mg/kg [2]: 52% |
| NS(=O)(=NC(=O)Nc1ccc(Cl)cc1)c1ccc(Cl)cc1 (centres unmarked) [Example 27] |  |  |  |  |  |  |  |  |  | inhibition in vivo at 25 mg/kg (Mus musculus, 6C3HED, po, read-out: % inhibition of tumor growth, oral, 25 mg/kg, BIDX 8): 39%; inhibition in vivo at 50 mg/kg (Mus musculus, 6C3HED, po, read-out: % inhibition of tumor growth, oral, 50 mg/kg, BIDX 8): 80%; inhibition in vivo at 100 mg/kg (Mus musculus, 6C3HED, po, read-out: % inhibition of tumor growth, oral, 100 mg/kg, BIDX 8): 100%; Tox/Tot (mice which died / total) (oral, 25 mg/kg, BIDX 8): 0/10; Tox/Tot (mice which died / total) (oral, 50 mg/kg, BIDX 8): 0/10; % inhibition of tumor growth (oral, 100 mg/kg, BIDX 8): 94%; % inhibition of tumor growth (oral, 200 mg/kg, BIDX 8): TOX; Tox/Tot (mice which died / total) (oral, 200 mg/kg, BIDX 8): 10/10 |
